Reference: the COVID Moonshot data (paper PMC7615835)
pIC50: −log10 of the molar value. “And” between values parts separate entries of the source, which are not always exact repeats. Equal values may be shown once.

biological target: SARS-CoV-2 Main Protease (SARS-CoV-2) (UniProt P0DTD1)

Q: How did the pIC50 turn out when `COc1ccccc1C(=O)N(c1ccc(C(C)(C)C)cc1)C(C(=O)NCCc1cccc(F)c1)c1cccnc1` (stereo unspecified) was run?
A: The pIC50 was < 4.00.

Q: `O=C(Cc1cc(Cl)cc(Nc2ccccc2Oc2ccccc2)c1)Nc1cncc2ccccc12` was tested. Which pIC50 did it give?
A: The pIC50 was 5.66.

Q: With `C=CC(=O)NCCC(=O)N(Cc1ccccc1)Cc1nc2ccccc2c(=O)[nH]1` as the molecule, how does the pIC50 read?
A: Its pIC50 is < 4.00.

Q: With `O=C(Cc1cc(Cl)cc(B(O)O)c1)Nc1cncc2ccccc12` as the molecule, how does the pIC50 read?
A: Its pIC50 is 5.32.

Q: `CC(C)(O)c1cccc(N(C(=O)c2cocn2)C(C(=O)NCCc2cccc(F)c2)c2cccnc2)c1` (stereo unspecified) was tested. Which pIC50 did it give?
A: Its pIC50 is < 4.00.

Q: How did the pIC50 turn out when `COc1ccc(-c2cc(COc3cc(Cl)cc(CC(=O)Nc4cnccc4C)c3)on2)cc1` was run?
A: The pIC50 was 4.20 and 4.09.

Q: How did the pIC50 turn out when `CC(C)(C)c1ccc(N(C(=O)c2cscn2)C(C(=O)NCCc2cccc(F)c2)c2cccnc2)cc1` (stereo unspecified) was run?
A: The pIC50 was 6.05.

Q: `CC(O)Cc1c(C(=O)N(c2ccc(C(C)(C)C)cc2)C(C(=O)NCCc2cccc(F)c2)c2cccnc2)[nH][nH]c1=O` (stereo unspecified) was tested. Which pIC50 did it give?
A: Its pIC50 is < 4.00.

Q: With `CS(=O)(=O)N1CCN(C(=O)CCl)CC1c1ccccc1` (stereo unspecified) as the molecule, how does the pIC50 read?
A: The pIC50 was 4.97.

Q: `Cc1cc(Nc2cc(Cl)cc(CC(=O)Nc3cncc4ccccc34)c2)cnc1Br` was tested. Which pIC50 did it give?
A: The pIC50 was 5.71.

Q: With `CC(C)(C)OC(=O)N1CC(NC(=O)C(c2cccnc2)N(C(=O)c2cocn2)c2ccc(C(C)(C)C)cc2)C1` (stereo unspecified) as the molecule, how does the pIC50 read?
A: The pIC50 was 5.16.

Q: `COC(=O)c1cc(/C=c2\s/c(=C(/C#N)C(=O)NC(C)C)n(-c3ccc(OC)c(F)c3)c2=O)oc1C` was tested. Which pIC50 did it give?
A: Its pIC50 is < 4.00.

Q: With `O=C(Cc1cc(Cl)cc(Nc2cccc(N3CCOCC3)c2)c1)Nc1cncc2ccccc12` as the molecule, how does the pIC50 read?
A: Its pIC50 is 5.61.

Q: With `O=C(Cc1cc(Cl)cc(NCc2cccc(F)c2Cl)c1)Nc1cncc2ccccc12` as the molecule, how does the pIC50 read?
A: The pIC50 was 5.65.

Q: With `O=C(CCl)N1CCN(C2(c3cccc(Cl)c3)CC2)CC1` as the molecule, how does the pIC50 read?
A: The pIC50 was 4.19 and 4.38.

Q: How did the pIC50 turn out when `O=S(=O)(c1cc2c(cc1OCc1ccccc1)OCO2)N1CCOCC1` was run?
A: Its pIC50 is < 4.00.

Q: How did the pIC50 turn out when `CN(C)c1ncc(C(C(=O)NCCc2cccc(F)c2)N(C(=O)c2cocn2)c2ccc(C(C)(C)C)cc2)cn1` (stereo unspecified) was run?
A: The pIC50 was < 4.00.

Q: With `CC(C)(C)OC(=O)[C@H]1CCCN1c1cc(Cl)cc(CC(=O)Nc2cncc3ccccc23)c1` (stereo in doubt) as the molecule, how does the pIC50 read?
A: Its pIC50 is 5.60.

Q: With `O=C(Cc1cccc(Cl)c1)Nc1n[nH]c2ccncc12` as the molecule, how does the pIC50 read?
A: The pIC50 was < 4.00.

Q: `Cc1ccncc1N1CCC(c2cccc(Cl)c2)C1=O` (stereo unspecified) was tested. Which pIC50 did it give?
A: The pIC50 was 4.35.

Q: With `Cc1cccc2cncc(N3CCC4(CCOc5ccc(Cl)cc54)C3)c12` (stereo unspecified) as the molecule, how does the pIC50 read?
A: Its pIC50 is < 4.00.

Q: `O=C(Cc1cccc(Cl)c1F)Nc1cncc2ccccc12` was tested. Which pIC50 did it give?
A: The pIC50 was 4.63.

Q: How did the pIC50 turn out when `O=C(Nc1ccc(-c2nnc[nH]2)cc1)c1cccc(F)c1F` was run?
A: The pIC50 was < 4.00.

Q: `O=[N+]([O-])c1cnc(Sc2nnc(-c3ccc(Cl)cc3)o2)s1` was tested. Which pIC50 did it give?
A: Its pIC50 is 6.06.

Q: `O=C(Nc1cncc2ccccc12)C1CN(S(=O)(=O)NC2CCC2)Cc2ccc(Cl)cc21` (stereo unspecified) was tested. Which pIC50 did it give?
A: Its pIC50 is 7.00 and 6.88 and 6.90.

Q: How did the pIC50 turn out when `O=C(Cc1cc(Cl)cc(Nc2ccncc2Br)c1)Nc1cncc2ccccc12` was run?
A: Its pIC50 is 5.66.

Q: How did the pIC50 turn out when `O=C(Cc1cc(O)cc(Cl)c1)Nc1cncc2ccccc12` was run?
A: Its pIC50 is 5.00.

Q: With `CCN(c1ccccc1)S(=O)(=O)c1ccc(OC)c(NC(=O)CCl)c1` as the molecule, how does the pIC50 read?
A: Its pIC50 is 5.49.

Q: With `Cc1cc(C)c(S(=O)(=O)N2CCCC2C(=O)Nc2ccc3[nH]c(=O)sc3c2)c(C)c1` (stereo unspecified) as the molecule, how does the pIC50 read?
A: The pIC50 was < 4.00.

Q: With `C=CC(=O)N(c1ccc(C(C)(C)C)cc1)C(C(=O)NC(C)(C)C)c1cncc(Cl)c1` (stereo unspecified) as the molecule, how does the pIC50 read?
A: Its pIC50 is 4.18.

Q: How did the pIC50 turn out when `CN(C)C(=O)C(CNC(=O)[C@@H](c1ccccc1)N1Cc2ccccc2C1=O)c1ccccc1` (stereo in doubt) was run?
A: Its pIC50 is < 4.00.

Q: `O=C(c1cncc2ccccc12)N1CCN(c2cccc(Cl)c2)CC1` was tested. Which pIC50 did it give?
A: Its pIC50 is 5.80.

Q: `COc1cc(COc2cc(Cl)cc(CC(=O)Nc3cnccc3C)c2)ccc1OC(F)F` was tested. Which pIC50 did it give?
A: The pIC50 was < 4.00.

Q: How did the pIC50 turn out when `O=C(Nc1cccc2cc[nH]c12)c1cccc2[nH]c(=O)oc12` was run?
A: Its pIC50 is < 4.00.

Q: With `CNC(=O)CN1CC2(CCN(c3cncc4cc(F)ccc34)C2=O)c2cc(Cl)ccc2C1=O` (stereo unspecified) as the molecule, how does the pIC50 read?
A: Its pIC50 is 6.37.

Q: `CN1C(=O)CC(O)(C(=O)Nc2cncc3ccccc23)c2cc(Cl)ccc21` (stereo unspecified) was tested. Which pIC50 did it give?
A: Its pIC50 is 4.68.

Q: `CC(=O)N1CCc2ccc(Cl)cc2C1C(=O)Nc1cncc2ccccc12` (stereo unspecified) was tested. Which pIC50 did it give?
A: Its pIC50 is 5.55.

Q: `O=C(Cc1cccc(Cl)c1)Nc1cncc2cc(OCC(F)(F)F)ccc12` was tested. Which pIC50 did it give?
A: Its pIC50 is < 4.00.

Q: With `O=C(Cc1cc(Cl)cc(Nc2cc(Cl)c(F)c(Cl)c2)c1)Nc1cncc2ccccc12` as the molecule, how does the pIC50 read?
A: The pIC50 was 5.73.

Q: `O=C(NCCc1cccc(F)c1)C(c1cccnc1)N(C(=O)c1cnc[nH]1)c1ccc(OC2CCOC2)cc1` (stereo unspecified) was tested. Which pIC50 did it give?
A: Its pIC50 is 4.59.

Q: How did the pIC50 turn out when `Cc1ccc(NC2=C(c3ccccc3)C(=O)N(Cc3cccnc3)C2=O)cc1C` was run?
A: The pIC50 was < 4.00.

Q: How did the pIC50 turn out when `CC1(C(=O)Nc2cncc3ccccc23)CNC(=O)c2ccc(Cl)cc21` (stereo unspecified) was run?
A: Its pIC50 is 6.06.

Q: With `Nc1cccc2c(=O)[nH]n(-c3cc(Cl)cc(CC(=O)Nc4cncc5ccccc45)c3)c(=O)c12` as the molecule, how does the pIC50 read?
A: The pIC50 was 5.23.

Q: With `Cn1cnc(C(=O)N(c2ccc(C(C)(C)C)cc2)C(C(=O)NCCc2cccc(F)c2)c2cccnc2)n1` (stereo unspecified) as the molecule, how does the pIC50 read?
A: The pIC50 was 4.13.

Q: With `COc1cccc(CCNc2cc(Cl)cc(CC(=O)Nc3cncc4ccccc34)c2)c1` as the molecule, how does the pIC50 read?
A: The pIC50 was 5.50.

Q: `COCc1ccc(N(C(=O)c2cnc[nH]2)C(C(=O)NCCc2cccc(F)c2)c2cccnc2)cc1` (stereo unspecified) was tested. Which pIC50 did it give?
A: The pIC50 was 4.20.

Q: With `CNC(=O)CN1Cc2ccc(Cl)cc2C2(CCN(c3cncc4c3CCCC4)C2=O)C1` (stereo unspecified) as the molecule, how does the pIC50 read?
A: The pIC50 was 6.59.

Q: How did the pIC50 turn out when `COc1ccc(N2CCN(C(=O)c3cc(=O)[nH]c4ccccc34)CC2)cc1` was run?
A: Its pIC50 is 4.83.

Q: `O=C(Cc1cc(Cl)cc(NCc2cc(F)c(F)c(F)c2)c1)Nc1cncc2ccccc12` was tested. Which pIC50 did it give?
A: The pIC50 was 5.47.

Q: `CS(=O)(=O)NCC1(C(=O)Nc2cncc3ccccc23)CCOc2ccc(Cl)cc21` (stereo unspecified) was tested. Which pIC50 did it give?
A: Its pIC50 is 5.41.

Q: With `CC(C)c1ccncc1NC(=O)Cc1cccc(Cl)c1` as the molecule, how does the pIC50 read?
A: Its pIC50 is 4.71.
